# Experimental data reported in US9949968B2, “Diarylalkylamine REV-ERB antagonists and their use as medicaments” (FONDAZIONE ISTITUTO ITALIANO DI TECNOLOGIA, priority 2013, dated 2018).
# Structures can show the parent of a compound that is named as a salt.
# How the values were obtained:
# [1] = tested on: REV-ERB; assay: Luciferase-based assay of REV-ERB mediated transcriptional regulation (RevRE/SV40-CLuc reporter in HEK-293 cells); assay type: cell-based; conditions: HEK-293 cells transfected with RevRE reporter and REV-ERBα and/or β; read 24 h post-transfection; read-out: REV-ERB antagonism EC50
# From the text: Luciferase-Base Assay to Assess the Activity of the Compounds on REV-ERB Mediated Transcriptional Regulation
# In order to assess the effect of the compounds of the invention on REV-ERB activity the inventors exploited the ability of REV-ERB to repress gene transcription of a specific DNA cis-element. In fact, the DNA binding domain (DBD) of REV-ERB recognizes specific DNA sequences (called RevREs=Rev-erb Responsive Elements) which contains an AGGTCA motif linked in 5′ to an A/T rich sequence harboring the following consensus: A/T A A/T N T (Harding et al., Mol Cell Biol., 1993; 13:3113).
# Therefore, two repetitions of the RevRE consensus AGAATGTAGGTCA (SEQ ID NO: 13) upstream a SV40 promoter driving the expression of a reporter gene were cloned. As reported, the luciferase enzyme from the ostracod Cypridina noctiluca was adopted. […] Cypridina luciferase (CLuc) is secreted from cells by virtue of its natural signal peptide and its luminescence can be measured from the supernatant of transfected cells. Therefore, cell lysis is not necessary. Secreted CLuc is a very stable protein. Because of this property, the activity measured from the supernatant reflects the amount of protein accumulated up to the time of sampling. Multiple samples can therefore be obtained from the same transfected cells, allowing an easy set-up of time-course experiments. In addition, the direct use of the supernatant makes the system easily prone to automation for High Throughput Screening.
# In order to normalize the experiment for the transfection efficiency, it was used a plasmid containing a SV40 promoter driving the expression of a secreted form of human alkaline phosphatase (SEAP), which enzymatic activity in the supernatant can be measured with chemiluminescence substrates.
# To be able to rule out false-positive, for example due to the interference of the compounds to be tested with the fluorescence and/or chemiluminescence reactions, it was used as control a mutated version of the RevRE (GAGCCCGTAGGTCA) (SEQ ID NO: 14) that is no longer able to bind REV-ERB DBD (Harding et al., Mol Cell Biol., 1993; 13:3113).
# The person skilled in the art will appreciate that an agonist will improve the ability of REV-ERB to repress the transcription, reducing the luminescence signal, while an antagonist will produce the opposite effect.
# For the assay, HEK-293 cells were transfected with the reporter vectors and a plasmid expressing the REV-ERBα and/or β protein. After 6 h from transfection, the medium was replaced with fresh medium containing different doses of the compounds or vehicle (DMSO). After 24 h post-transfection, the supernatant was analyzed for the secreted luciferase and AP activity according to the manufacture instruction. Data normalized as fold activation versus vehicle (DMSO) were fitted using a four-parameter dose-response curve to calculate the EC50 of the different compounds.
# (§1) The different compounds were tested for their ability to inhibit the growth of the tumorigenic breast cancer cells BT-474 and for their antagonistic activity toward REV-ERB transcriptional repression, as described in the biological method section.
# For the cell growth inhibition (GI) the growth inhibition 50 (GI50) and the growth inhibition max (GImax) are reported. […] The bottom plateaus of the curve was used to calculate the Growth Inhibition max (GImax), defined as the percentage of the reduction of cells after 48 h upon a saturating dose of the administered compound. Compounds with a GI50<100 μM were also tested for their antagonistic activity toward REV-ERB. […]
# [2] = tested on: tumorigenic breast cancer cells BT-474; assay: Growth inhibition assay (CyQUANT Cell Proliferation Assay) in BT-474 cells; assay type: cell-based; conditions: Homo sapiens; for GI50: 48 h, CyQUANT, read-out: Cell Growth Inibition GI50; for Emax: reduction of cells after 48 h at saturating dose, read-out: Cell Growth Inibition GImax
# From the text: Given that REV-ERB target genes include several metabolic regulators, such as Pgc-1α and Nampt, it was decided to test the cell proliferation with a method that is independent from the metabolic state of the cell.
# The CyQUANT® Cell Proliferation Assay Kit (Invitrogen) was used, an assay that has a linear detection range extending from 50 or fewer to at least 250,000 cells.
# Frozen cells are simply thawed and lysed by addition of a buffer containing the CyQUANT®.
# For the assay, tumorigenic breast cancer cells BT-474 cells were seeded at 2500 cells per well in a 96-well plate and incubated over-night at 37° C. Then, fresh medium containing different concentration of the compounds or vehicle (DMSO) was added and cells were growth 48 h at 37° C. Finally, cells were frozen at […] and then processed according to the manufacture instructions. A minimum of triplicate data for each dose was used for the analysis.
# Data were collected and analyzed with Prism 5 software to calculate the growth inhibition curve.
# In particular, values obtained from the DMSO treated cells was set at 100% of growth. Data from treatment of cells with serial dilutions of the compounds were normalized versus the DMSO group and fitted using a four-parameter dose-response curve.
# GI50 was calculated as the concentration of compound that gives a response half way between bottom and top plateaus of the fitted curve.
# The bottom plateaus of the fitted curve was used to calculate the Growth Inhibition max (GImax), defined as the percentage of the reduction of cells after 48 h upon a saturating dose of compound.
# as §1
# For the cell growth inhibition (GI) the growth inhibition 50 (GI50) and the growth inhibition max (GImax) are reported. […] The bottom plateaus of the curve was used to calculate the Growth Inhibition max (GImax), defined as the percentage of the reduction of cells after 48 h upon a saturating dose of the administered compound. Compounds with a GI50<100 μM were also tested for their antagonistic activity toward REV-ERB. For these compounds, the EC50 value is provided, calculated as the concentration of compound that gives a response half between the bottom (expression of the reporter in absence of compound) and the top (expression of the reporter at saturating doses of compound) plateaus of the fitted curves (see biological method section for a description of the reported assay). n.d.=not determined; n.t.=not tested.
Structure (SMILES),EC50 [1] [µM],GI50 [2] [µM],Emax [2] [%]
"Oc1ccc(CNC2(c3ccccc3F)CCCC2)cc1CN1CCCCC1 [Example 2, 4-[[[1-(2-Fluorophenyl)cyclopentyl]amino]methyl]-2-(1-piperidylmethyl)phenol dihydrochloride]",45,30,55
"CN1CCN(Cc2cc(CNC3(c4ccccc4F)CCCCC3)ccc2O)CC1 [Example 3, 4-[[[1-(2-Fluorophenyl)cyclohexyl]amino]methyl]-2-[(4-methylpiperazin-1-yl)methyl]phenol trihydrochloride]",20,14,95
"CN1CCN(Cc2cccc(CNC3(c4ccccc4F)CCCC3)c2)CC1 [Example 4, 1-(2-Fluorophenyl)-N-[[3-[(4-methylpiperazin-1-yl)methyl]phenyl]methyl]-cyclopentanamine trihydrochloride]",47,30,73
"COc1ccc(CNC2(c3ccccc3F)CCCC2)cc1CN1CCN(C)CC1 [Example 5, 1-(2-Fluorophenyl)-N-[[4-methoxy-3-[(4-methylpiperazin-1-yl)methyl]-phenyl]methyl]cyclopentanamine trihydrochloride]",43,26,75
"CN1CCN(Cc2cc(CNC3(c4ccccc4)CCCC3)ccc2O)CC1 [Example 7, 2-[(4-Methylpiperazin-1-yl)methyl]-4-[[(1-phenylcyclopentyl)amino]methyl]-phenol trihydrochloride]",24,18,70
"Oc1ccc(CNC2(c3ccccc3F)CCCC2)cc1CN1CCN(c2ccccc2)CC1 [Example 9, 4-[[[1-(2-Fluorophenyl)cyclopentyl]amino]methyl]-2-[(4-phenylpiperazin-1-yl)methyl]phenol trihydrochloride]",50,30,50
"CCN1CCN(Cc2cc(CNC3(c4ccccc4F)CCCC3)ccc2O)CC1 [Example 10, 2-[(4-Ethylpiperazin-1-yl)methyl]-4-[[[1-(2-fluorophenyl)cyclopentyl]amino]-methyl]phenol trihydrochloride]",25,15,70
"Oc1ccc(CNC2(c3ccccc3F)CCCC2)cc1CN1CCNCC1 [Example 11, 4-[[[1-(2-Fluorophenyl)cyclopentyl]amino]methyl]-2-(piperazin-1-ylmethyl)-phenol]",40,24,70
"Oc1ccc(CNC2(c3ccccc3F)CCCC2)cc1CN1CCN(Cc2ccccc2)CC1 [Example 12, 2-[(4-Benzylpiperazin-1-yl)methyl]-4-[[[1-(2-fluorophenyl)cyclopentyl]amino]-methyl]phenol trihydrochloride]",40,23,77
"COc1ccccc1C1(NCc2ccc(O)c(CN3CCN(C)CC3)c2)CCCC1 [Example 14, 4-{[1-(2-Methoxy-phenyl)-cyclopentyl-amino]-methyl}-2-(4-methylpiperazin-1-ylmethyl)-phenol trihydrochloride]",23,19,82
"CN1CCN(Cc2cc(CNC3(c4ccccc4F)CCC(F)(F)CC3)ccc2O)CC1 [Example 17, 4-[[[4,4-difluoro-1-(2-fluorophenyl)cyclohexyl]amino]methyl]-2-[(4-methyl-piperazin-1-yl)methyl]phenol trihydrochloride]",21,18,90
"CN1CCC(Cc2cccc(CNC3(c4ccccc4F)CCCC3)c2)CC1 [Example 18, 1-(2-fluorophenyl)-N-[[3-[1-methyl-4-piperidyl)methyl]phenyl]methyl]cyclopentanamine dihydrochloride]",8,2,95
"CN1CCC(Cc2cccc(CN(C)C3(c4ccccc4F)CCCC3)c2)CC1 [Example 19, 1-(2-fluorophenyl)-N-methyl-N-[[3-[(1-methyl-4-piperidyl)methyl]phenyl]methyl]cyclopentanamine dihydrochloride]",11,5,90
"CN1CCN(Cc2cc(CNC3(c4ccccc4F)CCN(Cc4ccccc4)CC3)ccc2O)CC1 [Example 20, 4-[[[1-Benzyl-4-(2-fluorophenyl)-4-piperidyl]amino]methyl]-2-[(4-methylpiperazin-1-yl)methyl]phenol tetrahydrochloride]",12,11,92
"Fc1ccccc1C1(NCc2cccc(CN3CCCCC3)c2)CCCC1 [Example 21, 1-(2-Fluorophenyl)-N-[[3-(1-piperidylmethyl)phenyl]methyl]cyclopentanamine dihydrochloride]",35,50,76
"CN1CCN(Cc2cc(CNC3(c4cccc(F)c4)CCCC3)ccc2O)CC1 [Example 22, 4-[[[1-(3-Fluorophenyl)cyclopentyl]amino]methyl]-2-[(4-methylpiperazin-1-yl)methyl]phenol trihydrochloride]",15,14,80
"CN1CCN(Cc2cc(CNC3(c4ccc(F)cc4)CCCC3)ccc2O)CC1 [Example 23, 4-[[[1-(4-Fluorophenyl)cyclopentyl]amino]methyl]-2-[(4-methylpiperazin-1-yl)methyl]phenol trihydrochloride]",10,10,90
"CN1CCN(Cc2cc(CNC3(c4cccs4)CCCC3)ccc2O)CC1 [Example 25, 2-[(4-Methylpiperazin-1-yl)methyl]-4-[[[1-(2-thienyl)cyclopentyl]amino]methyl]phenol trihydrochloride]",29,18,70
"COc1cccc(C2(NCc3ccc(O)c(CN4CCN(C)CC4)c3)CCCC2)c1 [Example 27, 4-[[[1-(3-Methoxyphenyl)cyclopentyl]amino]methyl]-2-[(4-methylpiperazin-1-yl)methyl]phenol trihydrochloride]",16,12,70
"CN1CCC(Cc2cccc(CNC3(c4ccccc4F)CCOCC3)c2)CC1 [Example 30, 4-(2-Fluorophenyl)-N-[[3-[(1-methyl-4-piperidyl)methyl]phenyl]methyl]tetrahydropyran-4-amine dihydrochloride]",6,3,95
